A melting point compilation (Tetko et al.; mined from patent text by program, amines drawn as free bases though some values may be those of a salt)

Row | melting point [°C] | Compound
1 | 243 to 245 | CN(Cc1cccc2c1C(=O)N(C1CCC(=O)NC1=O)C2=O)C(=O)NC1CCCCC1 (configuration not stated)
2 | 240 | FC(F)(F)c1ccc(-c2cc(C(F)(F)F)n3cnc(-c4ccncc4)c3n2)cc1
3 | 107 to 109 | CCOC(=O)c1csc(-n2ccnc2)n1
4 | 135 to 140 | CC(Cn1ccnc1)OCC(O)(P(=O)(O)O)P(=O)(O)O (configuration not stated)
5 | 128 | CCc1cc(=O)c2cc(C(C)C(=O)O)ccc2o1 (configuration not stated)
6 | 74 to 76 | O=C(CCCCCCn1ccc2ccc(NC(=O)OC3CCCC3)cc21)NS(=O)(=O)c1ccccc1
7 | 202 to 203 | CC(C)(C)c1ccc(NC(=O)c2cccc3cc(Oc4cc(CO)ncn4)ccc23)cc1
8 | 60 to 64 | CCC(O)(Cn1cncn1)C(c1ccc(Cl)cc1)n1cncn1 (configuration not stated)
9 | 68 to 69 | CCCc1ccc(C2c3c(C)c(N)c(C)c(C)c3OC2(C)C)cc1 (configuration not stated)
10 | 189 to 191 | COc1ccc(-c2nc3sccn3c2/C=C/C(=O)c2ccc3c(c2)OCO3)cc1
11 | 112 to 113 | CCN(CC)CCN(CC)C(=O)c1ccccc1Nc1ccnc2c(C(F)(F)F)cccc12
12 | 109 to 111 | O=C(c1ccc(OCCn2ccnc2)cc1)N1CCOCC1
13 | 173 to 175 | COc1cccc(NC(=NC#N)NC(NC(=O)c2ccc(Cl)cc2)C(C)(C)C)c1 (configuration not stated)
14 | 143 to 144 | CN(O)C(=O)N1CCC(C(c2ccccc2)c2ccccc2)CC1
15 | 201 to 203 | COc1cc(NC(=O)CC23CC4CC(CC(C4)C2)C3)c(C)c(OC)c1
16 | 116 to 118 | CC(C)CCC1(CCC(C)C)c2cc(Cl)ccc2-c2ccc(Cl)cc21

Row | melting point [°C] | Compound
17 | 152 to 153 | COc1ccc(Cl)cc1C(=O)N(C)CCc1ccc(CCC(=O)O)cc1
18 | 172 to 175 | CC(C)=NNc1cc2c(nn1)CCN(C(=O)CC(c1ccccc1)c1ccccc1)C2
19 | > 250 | COc1ccc2ncc(C#N)c(Nc3ccc(Cl)cc3F)c2c1
20 | 175 to 180 | O=C(Nc1ccc(N2CCOCC2)c(C(F)(F)F)c1)c1ccc(F)c(OCc2cncc3ccccc23)c1
21 | 180 to 183 | COc1cc2ncc(C#N)c(Nc3ccc4cn[nH]c4c3)c2cc1OC
22 | 116 to 117 | CC(C)n1nc(COc2ccccc2CC(=O)O)cc1OCc1ccc2ccccc2n1
23 | 272 to 274 | O=C1c2ccccc2C(=O)c2c(NC(=O)[C@@H]3C[C@H]3c3ccccc3)ccc(NC(=O)[C@@H]3C[C@H]3c3ccccc3)c21 (relative stereo)
24 | 189 to 192 | O=C(/C=C1/c2ccccc2N(C(=O)c2ccc(NC(=O)c3ccccc3-c3ccccc3)cc2)CCC1(F)F)NCc1ccccc1
25 | 201 to 203 | O=C(NO)c1ccc(-c2c3ccccc3nn2Cc2ccccc2)cc1
26 | 166 to 167 | Cc1noc(NC(=O)N2CCN(c3nc(-c4ccc(F)cc4F)cs3)CC2)c1C
27 | 153 to 154 | CCCCCCCCCCCCCCCCCCOCC(O)Cn1ccc(N)nc1=O (configuration not stated)
28 | 47 to 51 | CC(C)(CNC(=O)CSCC(=O)O)SN=O
29 | 224 to 226 | CC(C)Oc1ccc(-c2nn(C(C)c3oc4ccccc4c(=O)c3-c3cccc(F)c3)c3ncnc(N)c23)cc1 (configuration not stated)
30 | 96.8 to 97.6 | CN1c2ccccc2-n2cc(Cc3cccnc3)c(=O)c3cccc1c32
31 | 150 | CCCCc1nc2cnc3cccnc3c2n1CCOc1ccccc1

The remaining lines, values behind:

Row | Compound | melting point [°C]
32 | c1ccc2c(c1)[nH]c1cccc(OCC3CO3)c12 (configuration not stated) | 133
33 | O=C(Nc1cccc(C(=O)Nc2ccccc2)c1)Nc1nnc(-c2cc(Cl)cc(Cl)c2O)s1 | 298
34 | COc1ccc2[nH]ncc2c1C | 148 to 149
35 | COC(=O)CC1c2cc([N+](=O)[O-])ccc2N(C(C)=O)C1C (configuration not stated) | 106
36 | CC(=O)N(C)C(=O)Oc1cccc2c1OCO2 | 48 to 50
37 | Nc1ccnc(SCCCCN2C(=O)c3ccccc3C2=O)n1 | 164 to 167
38 | [N-]=[N+]=NCc1ccc(Sc2ccc(Cl)cc2)c(Cl)c1 | 39 to 41
39 | COc1ccc2c(c1)CCC1C2CCC2(C)C(=O)CC(C)(C(C)C)C12 (configuration not stated) | 113 to 115
40 | CCC(=O)C(Cc1cc(O)c(O)c([N+](=O)[O-])c1)C(=O)CC | 126 to 131
41 | O=Cc1cc(OCCCC(=O)O)ccc1[N+](=O)[O-] | 112 to 114
42 | CNC12CCCCC1CCc1cc(O)ccc12 (configuration not stated) | 191
43 | CCOC(=O)Nc1ccc(OC)cc1[N+](=O)[O-] | 56 to 57
44 | COCc1noc(-c2ncn3c2[C@@H]2CCCN2C(=O)c2c(Cl)cccc2-3)n1 | 168 to 170
45 | CC(=O)c1ccc(-c2cnc3c(c2)N(Cc2ccccc2)C(=O)CN3)cc1 | 200
46 | CC(C)(CNC1(c2ccccc2Cl)C(=O)Nc2ccc(Cl)cc21)NC(=O)OC(C)(C)C (configuration not stated) | 164
47 | Nc1nc(N)c2c(CCc3ccc(C(=O)N[C@@H](CCC(=O)O)C(=O)O)cc3)cnc-2[nH]1 | 258 to 262
48 | COc1nc(O)cc(=O)n1C | 170 to 171
49 | CCn1cnc2c(Nc3ccc(NC(=O)OC)cc3)nc(N[C@H]3CC[C@H](O)CC3)nc21 | 131 to 135
50 | COC(=O)c1cc(N2CCC2)c(C(F)(F)F)cc1[N+](=O)[O-] | 127 to 136
51 | O=C1CCC(N2Cc3cc(CNC(=O)Nc4cc(Cl)ccc4Cl)ccc3C2=O)C(=O)N1 (configuration not stated) | 269 to 271
52 | CNN1c2c(cc(Oc3ccc(F)cc3F)c(=O)n2NC)C=NC1NC1CCOCC1 (configuration not stated) | 80.5 to 89.9
53 | CCCCN(CCCCO)c1ccc(C=Cc2ccc(C=CC3=C(C#N)C(=C(C#N)C#N)OC3(C)C)s2)c(OCc2ccccc2)c1 | 216 to 217

Row | Compound | melting point [°C]
54 | Cc1ccc(S(=O)(=O)OCCC2(O)CCc3cc(F)ccc3C2C(C)C)cc1 (configuration not stated) | 65 to 67
55 | CC(C)(C)OC(=O)N1CCC(c2nc3cc(-c4ccc(-n5cnnn5)c(F)c4)ccc3o2)CC1 | 154 to 159
56 | O=S1(=O)NCN(CCF)c2cc(Cl)c(Br)cc21 | 159 to 162
57 | COc1ccc(S(=O)(=O)N2c3ccccc3CC2C(=O)NO)cc1 (configuration not stated) | 142
58 | Oc1ccc(Br)cc1-c1ccc2nonc2c1 | 179 to 181
59 | CC(C)(C)c1ccc(C2(O)CN(C(c3ccccc3)c3ccccc3)C2)cc1 | 168 to 169
60 | CCCCCC(=O)C=Cc1cc(O)c2c(c1)OC(C)(C)C1CC=C(C)CC21 (configuration not stated) | 119
61 | Cc1c(CO)ncn1C(c1ccccc1)(c1ccccc1)c1ccccc1 | 255 to 260
62 | O=C(Cn1nc(-c2ccccc2O)nc1-c1ccccc1O)N1CCOCC1 | 149 to 151
63 | CC1(COc2ccc(OCCN3CC(COc4ccccc4)OC3=O)cc2)OCCO1 (configuration not stated) | 75 to 77
64 | COc1cc(OC)c(-c2ccc(N(C)CCN(C)c3ccc(-c4c(OC)cc(OC)cc4OC)nc3)cn2)c(OC)c1 | 264 to 265
65 | COc1cccn2c(=O)c3c(nc12)C(=Cc1ccccc1)CC3 | 212 to 214
66 | CS(=O)(=O)c1ccc(-c2cnn(-c3ccc(F)c(F)c3)c(=O)c2CCC=C2CC2)cc1 | 128 to 129
67 | Cc1cnc(-c2ssc(=S)c2C)cn1 | 162 to 163
68 | O=C1COC(C#CC2CC2)(C(F)(F)F)c2cc(Cl)ccc2N1 (configuration not stated) | 200
69 | CCCCCCCCCCCCOc1cccc2c(OCC(O)CO)cccc12 (configuration not stated) | 143 to 144
70 | CCCSc1ccc(C(=O)C(=O)O)[nH]1 | 87
71 | CC(=O)N1CCC(c2nccc3occc23)CC1 | 108 to 110
72 | CC(C)N(C(=O)c1nn(-c2ccc(F)cc2F)c2c1C1CCC2C1)C(C)C (configuration not stated) | 107 to 109
73 | CC(C)N1C(=O)NCc2c(-c3ccccc3)cccc21 | 182 to 183
74 | C[C@H](CSC(=O)C(C)(C)C)C(=O)N(CC(=O)O)C1CCCC1 | 155 to 156
75 | CCCn1nc(-c2ccc(F)cc2)c(-c2ccc(S(C)(=O)=O)cc2)cc1=O | 155 to 157

Row | Compound | melting point [°C]
76 | O=C1c2ccccc2C(Nc2ccc(Cl)cc2)N1CCCN1CC=C(c2ccccc2)CC1 (configuration not stated) | 188
77 | CCOCc1nc2cnc3cc(Br)ccc3c2n1C[C@@H]1COC(C)(C)O1 | 90 to 91
78 | CC(Cc1cccnc1)(NC(=O)OC1C2CC3CC(C2)CC1C3)C(=O)NC(CO)Cc1ccccc1 (configuration not stated) | 63 to 67
79 | C#CCOC(=O)c1ncn2c1CN(C)C(=O)c1cc(F)ccc1-2 | 220 to 222
80 | O=Cc1ccc(NC(=O)c2cc(F)cc(N3CCOCC3)c2)c2ccccc12 | 204 to 205
81 | CC(C)(C)NC(=S)Nc1cc(F)cc(Cl)c1 | 135 to 137
82 | CSc1nc(C)c(Cl)c(Cl)n1 | 49 to 50
83 | Cc1cc(C)c2cccc(OCc3c(Cl)ccc(S(=O)(=O)N4CCC[C@H]4C(=O)N4CCN(S(=O)(=O)c5ccc(C#N)cc5)CC4)c3Cl)c2n1 | 156 to 158
84 | C#Cc1cn(C2CC(F)C(COC(c3ccccc3)(c3ccccc3)c3ccccc3)O2)c(=O)[nH]c1=O (configuration not stated) | 54
85 | CCC(Oc1ccc(Cl)c(C)c1)C(=O)NCc1ccco1 (configuration not stated) | 100 to 102
86 | Cc1ccc(-c2ccc3c(c2)C=C(C(=O)Nc2ccc(CN(C)C4CCOCC4)cc2)CCS3(=O)=O)s1 | 229 to 231
87 | O=C(O)c1cn(CCc2ccc(Cl)cc2)c2cc(C3CC3)nn2c1=O | 220 to 225
88 | CSc1ccc(C(C)=Cc2ccc3ccccc3c2)cc1 | 161
89 | Cc1ccc(-n2nc(C)cc2-c2ccnc(Cl)c2)cc1 | 100
90 | COc1cc(C(=O)c2cccs2)cc(OC)c1OC | 83
91 | CCCCc1nc(Cl)c(C(=O)O)n1Cc1ccc(-c2ccccc2I)cc1 | 175
92 | OCC1OC(n2c(Cl)nc3cc(Cl)c(Cl)cc32)C(O)C1F (configuration not stated) | 238
93 | CCOC(=O)c1ccc(OCCCCCCCCCCC2c3c(c4ccccc4c4ccccc34)-c3c2c2ccccc2c2ccccc32)cc1 | 122 to 124
94 | FC(F)(F)c1cccc(CSc2nnc(-c3ncnc4[nH]ccc34)o2)c1 | 199 to 200
95 | CCCOc1ccccc1-c1nc2cc3ncn(Cc4ccccc4)c3cc2c(=O)[nH]1 | 218 to 219
96 | CCOC(=O)C1=C(N)NC2=C(C(=O)CCC2)C1c1cccc(C)n1 (configuration not stated) | > 260
97 | CC1(C)C(C=C(F)C(=O)O)C1C(=O)OCc1ccccc1 (configuration not stated) | 88
